Assays:
Test in all cases: relative viability (nuclei count vs DMSO), 5 days (fraction); higher = more cells survive
Neratinib + Trametinib = compound: CCOc1cc2ncc(C#N)c(Nc3ccc(OCc4ccccn4)c(Cl)c3)c2cc1NC(=O)/C=C/CN(C)C [Neratinib] + CC(=O)Nc1cccc(-n2c(=O)n(C3CC3)c(=O)c3c(Nc4ccc(I)cc4F)n(C)c(=O)c(C)c32)c1 [Trametinib] (partner 0.02 µM)
How it was run: (§1)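 Lung cancer cell lines were seeded in 1536-well plates and dosed by pin tool the next day, with either a single drug or a fixed anchor-drug dose combined with five library-drug doses (not always all listed) spaced in √10 steps. Five days later, one step fixed the cells and stained their nuclei (final 0.05% Triton X-100, 1% formaldehyde, 1 ug/ml Hoechst), and nuclei were counted on 4× images. Relative viability is the nuclei count in treated wells divided by the count in vehicle wells, and each value is the median of duplicate plates.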

Neratinib + Bortezomib = compound: CCOc1cc2ncc(C#N)c(Nc3ccc(OCc4ccccn4)c(Cl)c3)c2cc1NC(=O)/C=C/CN(C)C [Neratinib] + CC(C)C[C@H](NC(=O)[C@H](Cc1ccccc1)NC(=O)c1cnccn1)B(O)O [Bortezomib] (partner 0.002 µM)
How it was run: as §1

Neratinib + Pictilisib = compound: CCOc1cc2ncc(C#N)c(Nc3ccc(OCc4ccccn4)c(Cl)c3)c2cc1NC(=O)/C=C/CN(C)C [Neratinib] + CS(=O)(=O)N1CCN(Cc2cc3nc(-c4cccc5[nH]ncc45)nc(N4CCOCC4)c3s2)CC1 [Pictilisib] (partner 1 µM)
How it was run: as §1

Neratinib + Olaparib = compound: CCOc1cc2ncc(C#N)c(Nc3ccc(OCc4ccccn4)c(Cl)c3)c2cc1NC(=O)/C=C/CN(C)C [Neratinib] + O=C(c1cc(Cc2n[nH]c(=O)c3ccccc23)ccc1F)N1CCN(C(=O)C2CC2)CC1 [Olaparib] (partner 8 µM)
How it was run: as §1

| Cell Line | relative viability (Neratinib + Trametinib; first compound 0.01 µM) | relative viability (Neratinib + Trametinib; first compound 0.03162 µM) | relative viability (Neratinib + Trametinib; first compound 0.1 µM) | relative viability (Neratinib + Trametinib; first compound 0.3162 µM) | relative viability (Neratinib + Trametinib; first compound 1 µM) | relative viability (Neratinib + Bortezomib; first compound 0.01 µM) | relative viability (Neratinib + Bortezomib; first compound 0.03162 µM) | relative viability (Neratinib + Bortezomib; first compound 0.1 µM) | relative viability (Neratinib + Bortezomib; first compound 0.3162 µM) | relative viability (Neratinib + Bortezomib; first compound 1 µM) | relative viability (Neratinib + Pictilisib; first compound 0.01 µM) | relative viability (Neratinib + Pictilisib; first compound 0.03162 µM) | relative viability (Neratinib + Pictilisib; first compound 0.1 µM) | relative viability (Neratinib + Pictilisib; first compound 0.3162 µM) | relative viability (Neratinib + Pictilisib; first compound 1 µM) | relative viability (Neratinib + Olaparib; first compound 0.01 µM) | relative viability (Neratinib + Olaparib; first compound 0.03162 µM) | relative viability (Neratinib + Olaparib; first compound 0.1 µM) | relative viability (Neratinib + Olaparib; first compound 0.3162 µM) | relative viability (Neratinib + Olaparib; first compound 1 µM) |
| --- | --- | --- | --- | --- | --- | --- | --- | --- | --- | --- | --- | --- | --- | --- | --- | --- | --- | --- | --- | --- |
| RERF-LC-KJ | 0.844 | 0.889 | 0.785 | 0.694 | 0.504 | 1.19 | 1.07 | 0.87 | 0.878 | 0.596 | 0.554 | 0.501 | 0.435 | 0.384 | 0.276 | 0.925 | 0.911 | 0.828 | 0.848 | 0.468 |
| SK-LU-1 | 0.517 | 0.58 | 0.457 | 0.442 | 0.344 | 1.3 | 1.5 | 1.34 | 1.14 | 0.504 | 0.647 | 0.65 | 0.514 | 0.505 | 0.34 | 0.486 | 0.549 | 0.413 | 0.432 | 0.314 |
| SW 1573 | 0.554 | 0.57 | 0.497 | 0.593 | 0.276 | 1.07 | 1.28 | 0.998 | 1.08 | 0.843 | 0.523 | 0.586 | 0.399 | 0.508 | 0.249 | 0.634 | 0.444 | 0.374 | 0.391 | 0.287 |
| UMC-11 | 0.621 | 0.879 | 0.673 | 0.666 | 0.686 | 0.623 | 0.964 | 0.823 | 0.615 | 0.729 | 0.776 | 1.06 | 0.566 | 0.746 | 0.701 | 0.362 | 0.388 | 0.33 | 0.361 | 0.299 |
